From patent US8188117B2, “Piperidinyl-substituted isoquinolone derivatives” (Sanofi-Aventis, priority 2005, dated 2012) come the findings set out here.

Each structure is given as a SMILES string.

The target of the assay is T1, ROCKII or ROKα (Homo sapiens, UniProt O75116).
T1 construct: purchased Upstate 14-451
T1 sequence (O75116 whole entry): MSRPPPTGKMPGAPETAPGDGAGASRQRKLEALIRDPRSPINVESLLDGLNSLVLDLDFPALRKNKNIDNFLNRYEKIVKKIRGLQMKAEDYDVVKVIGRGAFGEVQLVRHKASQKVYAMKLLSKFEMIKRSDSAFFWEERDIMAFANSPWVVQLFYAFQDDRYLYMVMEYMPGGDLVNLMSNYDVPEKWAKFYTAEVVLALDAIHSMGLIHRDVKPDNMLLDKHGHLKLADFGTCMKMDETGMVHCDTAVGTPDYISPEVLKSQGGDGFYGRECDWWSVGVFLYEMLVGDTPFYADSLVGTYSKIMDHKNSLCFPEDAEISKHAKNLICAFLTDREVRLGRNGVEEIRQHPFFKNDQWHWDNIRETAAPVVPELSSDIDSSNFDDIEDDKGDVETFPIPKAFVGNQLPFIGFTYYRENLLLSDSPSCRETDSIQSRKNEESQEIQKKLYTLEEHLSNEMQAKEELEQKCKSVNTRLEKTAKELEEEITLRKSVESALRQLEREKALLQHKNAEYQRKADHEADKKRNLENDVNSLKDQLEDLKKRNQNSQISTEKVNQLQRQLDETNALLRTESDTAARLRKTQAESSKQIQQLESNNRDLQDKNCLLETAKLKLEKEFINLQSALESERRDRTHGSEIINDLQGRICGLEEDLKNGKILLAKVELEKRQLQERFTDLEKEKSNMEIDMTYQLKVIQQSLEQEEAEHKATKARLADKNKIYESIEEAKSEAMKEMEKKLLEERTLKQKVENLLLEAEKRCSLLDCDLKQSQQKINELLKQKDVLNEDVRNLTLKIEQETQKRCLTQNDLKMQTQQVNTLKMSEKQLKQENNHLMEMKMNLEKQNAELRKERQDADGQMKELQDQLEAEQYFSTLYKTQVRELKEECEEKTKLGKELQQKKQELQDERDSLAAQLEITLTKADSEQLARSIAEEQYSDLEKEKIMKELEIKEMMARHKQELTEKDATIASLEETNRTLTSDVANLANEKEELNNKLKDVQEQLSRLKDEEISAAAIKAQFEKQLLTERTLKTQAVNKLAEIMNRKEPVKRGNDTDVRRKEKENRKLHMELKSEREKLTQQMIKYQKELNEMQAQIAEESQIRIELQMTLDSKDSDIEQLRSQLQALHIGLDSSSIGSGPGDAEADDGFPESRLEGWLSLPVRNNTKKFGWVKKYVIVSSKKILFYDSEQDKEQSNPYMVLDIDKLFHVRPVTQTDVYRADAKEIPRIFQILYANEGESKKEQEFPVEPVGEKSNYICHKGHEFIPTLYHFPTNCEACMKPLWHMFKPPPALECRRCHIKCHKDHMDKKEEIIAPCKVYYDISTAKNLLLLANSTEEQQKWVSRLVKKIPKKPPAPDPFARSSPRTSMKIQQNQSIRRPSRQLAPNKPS
Kind of assay: Determination of Rho kinase inhibition (γ33P ATP, Streptavidin Flash Plate). The note with it: ATP 40 μM, enzyme 0.1 ng/μl, 20 min at room temperature, tested as salt or free base obtained in the examples. The assay is classed as biochemical. The procedure:
Determination of Rho Kinase Inhibition
To measure Rho-kinase inhibition, IC50 values were determined according to the following protocol:
Buffer: 25 mM Tris pH7.5; 0.02% BSA; 5% Glycerol; 0.008% Triton X100; 2% DMSO, 1 mM DTT; 1 mM MgCl2; 0.5 μCi/well γ^33P ATP
Enzyme: ROCKII or ROKα) (Upstate, Catalog #14-451 Lot #24880U) 0.1 ng/μl Final concentration of ATP in reaction mixture 40 μM
Biotinylated substrate, diluted to 0.25 μM with buffer described above (without ATP)
• 1. 10 μl Tris buffer (±Inhibitor) • 2. Add 30 μL of enzyme solution • 3. Start the reaction with 30 μL of mix substrate/ATP/ATP33 • 4. Incubate for 20 min at room temperature • 5. Stop reaction with 30 μL of 50 mM EDTA • 6. Transfer 50 μL of stopped solution to Streptavidin Flash Plate plus, Perkin Elmer, SMP 103A • 7. Incubate for 30 min at RT • 8. Wash 4 times with 300 μl of PBS/0.1% Tween 20 • 9. Radioactivity in the well was determined
As for `O=c1[nH]ccc2cc(OC3CCNCC3)ccc12` [Example 12, 6-(Piperidin-4-yloxy)-2H-isoquinolin-1-one], the pIC50 result is given as “+++++ (6.0 ≦ pIC50)”.

For the compound `O=c1[nH]ccc2cc(OC3CCNCC3)c(Br)cc12` [Example 17, 7-Bromo-6-(piperidin-4-yloxy)-2H-isoquinolin-1-one], the pIC50 entry is on record as “+++++ (6.0 ≦ pIC50)”.

For the compound `O=c1[nH]ccc2c(Cl)c(OC3CCNCC3)ccc12` [Example 309, 5-Chloro-6-(piperidin-4-yloxy)-2H-isoquinolin-1-one], the pIC50 result is listed as “+++++ (6.0 ≦ pIC50)”. `Cc1cc2c(=O)[nH]ccc2cc1OC1CCN(Cc2ccsc2)CC1` [Example 266]: the pIC50 result is on record as “+++++ (6.0 ≦ pIC50)”. Turning to `COc1cc2c(=O)[nH]ccc2cc1OC1CCNCC1` [Example 25], the pIC50 entry is recorded as “++++ (5.0 ≦ pIC50 < 6.0)”. Take `Cc1cc2c(=O)[nH]ccc2cc1OC1CCN(Cc2ccc(S(C)(=O)=O)cc2)CC1` [Example 275]: the pIC50 result was “+++++ (6.0 ≦ pIC50)”. As to `O=c1[nH]ccc2cc(OC3CCN(CC4CC4)CC3)ccc12` [Example 58], the pIC50 result is given as “+++++ (6.0 ≦ pIC50)”. For `O=c1[nH]ccc2cc(OC3CCNCC3)c(F)cc12` [Example 23] the value was “+++++ (6.0 ≦ pIC50)”.

Take `Cc1cc2c(=O)[nH]ccc2cc1OC1CCN(Cc2ccccn2)CC1` [Example 276]: the pIC50 entry was “+++++ (6.0 ≦ pIC50)”. For `CCc1c[nH]c(=O)c2ccc(OC3CCNCC3)cc12` [Example 31] the value was “+++++ (6.0 ≦ pIC50)”; for `Cc1cc2c(=O)[nH]cc(C)c2cc1OC1CCNCC1` [Example 28], “+++++ (6.0 ≦ pIC50)”. For `Cc1c[nH]c(=O)c2ccc(OC3CCNCC3)cc12` [Example 21] the value was “+++++ (6.0 ≦ pIC50)”; for `CCCN1CCC(Oc2cc3cc[nH]c(=O)c3cc2F)CC1` [Example 101], “+++++ (6.0 ≦ pIC50)”; for `Cc1cc2c(=O)[nH]ccc2cc1OC1CCN(CC2CCOC2)CC1` (centres unmarked) [Example 265], “+++++ (6.0 ≦ pIC50)”. For the compound `CCc1c[nH]c(=O)c2cc(F)c(OC3CCNCC3)cc12` [Example 32], the pIC50 result is “++++ (5.0 ≦ pIC50 < 6.0)”. Consider `CN1CCC(Oc2ccc3c(=O)[nH]ccc3c2)CC1` [Example 40], for which the pIC50 result is on record as “+++++ (6.0 ≦ pIC50)”. For `Oc1nccc2cc(OC3CCNCC3)c(Cl)cc12` [Example 54, 7-Chloro-6-(piperidin-4-yloxy)-2H-isoquinolin-1-one] the value was “+++++ (6.0 ≦ pIC50)”; for `O=c1[nH]ccc2cc(OC[C@H]3CCCNC3)ccc12` [Example 49], “++++ (5.0 ≦ pIC50 < 6.0)”. Turning to `CC(C)N1CCC(Oc2cc3ccnc(O)c3cc2Cl)CC1` [Example 55, 7-Chloro-6-(1-isopropyl-piperidin-4-yloxy)-2H-isoquinolin-1-one], the pIC50 entry was “+++++ (6.0 ≦ pIC50)”.

Take `O=c1[nH]cc(Br)c2cc(OC3CCNCC3)ccc12` [Example 52, 4-Bromo-6-(piperidin-4-yloxy)-2H-isoquinolin-1-one]: the pIC50 entry is “+++++ (6.0 ≦ pIC50)”.
